Patent US20210299260A1, “THERAPEUTIC CONJUGATES” (Ariel Scientific Innovations Ltd., priority 2018, published 2021)

Legend:
[1] = literature report; cited from earlier work
physchem = format: physicochemical; settings: for half-life: buffer
Experimental: These studies were performed for Compound 1 at two pH values: 4.6 and 7.4, and compared to triazene drug dacarbazine (DTIC). These chosen pHs mimic relatively acidic cancer intracellular (pH 4.6) and slightly basic physiological (pH 7.4) environments.
(§1) The results for DTIC are consistent with the reported stability of the control drug in various hydrolytic media. In addition, Compound 1 decomposition has been studied by hepatic cytochrome P450 induction in hepatocellular carcinoma HepG2 cells using LC-MS (FIG. 1D). […] The decomposition of Compound 1 was examined in cell medium and in cell lysate, while the identification of metabolites was carried out solely in cell lysate.

[2] = system: hepatocellular carcinoma HepG2 cells; assay: Decomposition and metabolite detection in HepG2 cells (medium versus cell lysate), LC-MS; format: in vitro ADME
Experimental: as §1
It is assumed that this metabolite is the result of oxidation of Compound 1 by hepatic cytochrome P450 and subsequent degradation of two dimethyl triazene tethers in agreement with the mechanism of action of dacarbazine. The observed stability of Compound 1 in PBS potentiates its pharmacological utility during circulation in blood. Therefore, it is concluded that the stability of Compound 1 is sufficient for proceeding to animal models.

A172 GBM cells = assay: Intracranial A172 GBM xenograft model in nude mice (weight, survival, histopathology); settings: for brain structure in brain sections / tumor area, tumor distribution and invasion in brain sections: H&E stained brain sections at termination; for brain structure in brain sections: FIG. 4; for brain structure in brain sections / tumor area, tumor distribution and invasion in brain sections / body weight gain of tumor-bearing mice / survival of tumor-bearing mice: Compound 1 50 mg/kg, TMZ 25 mg/kg; for body weight gain of tumor-bearing mice / survival of tumor-bearing mice: i.p. once daily, five injections; for body weight gain of tumor-bearing mice: FIG. 2; for survival of tumor-bearing mice: FIG. 3A; for tolerability to treatment: mice bearing GBM tumors, reflected by body weight and survival
Experimental: The efficacy of Compound 1 in inhibition of intracranial malignant brain glioblastoma growth and survival in nude mice was evaluated using nude mice that were implanted with 5×10^5 A172 GBM cells in the right striatum, followed by consequent once daily five intraperitoneal injections with the vehicle, TMZ (25 mg/kg) and Compound 1 (50 mg/kg), on the tenth day after glioblastoma implantation.
Mice brains were collected at termination day determined by appearance of severe clinical signs within tumor progression and invasion in brain tissue. Brains were fixed with 4% PFA, paraffin embedded and serially cut in to 5 μm. Three slides within a distance of 100 μm apart were sampled for each brain, and stained with hematoxyline-eosin dyes (H&E). Tumor area, distribution and invasion in to brain tissue were observed under light microscopy.

[3] = pH 7.4; cited from earlier work
[4] = listed as DKP-dimethyltriazene conjugate

**Q.** For N-Me-Phe-(N-Me-Phe)3-CONH2, which BBB permeability [1] is on record?
**A.** Its BBB permeability is “High BBB-permeability”.

**Q.** Which BBB permeability [1] does the source give for NCCCC(=O)O [γ-aminobutyric acid] here?
**A.** Its BBB permeability is “did not show permeability”.

**Q.** With CN(C)/N=N/c1ccc(C[C@H]2C(=O)N(C)[C@@H](Cc3ccc(/N=N/N(C)C)cc3)C(=O)N2C)cc1 [Compound 1, (3S,6S)-3,6-bis(4-((E)-3,3-dimethyltriaz-1-en-1-yl)benzyl)-1,4-dimethylpiperazine-2,5-dione] as the compound, how does the half-life (physchem; pH 4.6) read?
**A.** The half-life was 4.8 h.

**Q.** What about the “stability in PBS buffer” value (physchem; pH 7.4) of the same compound?
**A.** The value was “sufficient stability”.

**Q.** And the “decomposition in cell medium” value ([2]; HepG2, incubation in cell medium, FIG. 1C)?
**A.** Its value is “continuous decomposition”.

**Q.** And the “accumulation/decomposition in cell lysate” value ([2]; HepG2 cell lysate, FIG. 1C)?
**A.** Its value is “gradually accumulated within an hour of incubation and decomposed subsequently”.

**Q.** What about the “main metabolite detected in cell lysate” value ([2]; HepG2 cell lysate, LC-MS, FIG. 1D) of the same compound?
**A.** Its value is “containing monomethyl triazene (MTIC like) and aniline (AIC like) groups”.

**Q.** And the “brain structure in brain sections” value (A172 GBM cells)?
**A.** Its value is “normal brain structure”.

**Q.** And the “tumor area, tumor distribution and invasion in brain sections” value (A172 GBM cells)?
**A.** Its value is “noticeable reduction”.

**Q.** What about the “body weight gain of tumor-bearing mice” value (A172 GBM cells) of the same compound?
**A.** Its value is “normal weight gain”.

**Q.** What about the “body weight gain of tumor-bearing mice” value (A172 GBM cells; [4]) of the same compound?
**A.** The value was “no weight loss”.

**Q.** And the “survival of tumor-bearing mice” value (A172 GBM cells)?
**A.** Its value is “prominent effect on tumor bearing mice survival rate”.

**Q.** And the “survival of tumor-bearing mice” value (A172 GBM cells; [4])?
**A.** The value was “superior activity compared to TMZ in overall survival”.

**Q.** And the tolerability to treatment (A172 GBM cells)?
**A.** Its tolerability to treatment is “good tolerability”.

**Q.** Which plasma half-life [3] does the source give for Cn1nnc2c(C(N)=O)ncn2c1=O [TMZ, Temozolomide, reference compound] here?
**A.** Its plasma half-life is 1.8 h.

**Q.** What about the “brain structure in brain sections” value (A172 GBM cells) of the same compound?
**A.** The value was “both lateral and third ventricles were significantly enlarged”.

**Q.** What about the “tumor area, tumor distribution and invasion in brain sections” value (A172 GBM cells) of the same compound?
**A.** The value was “noticeable reduction”.

**Q.** What about the “body weight gain of tumor-bearing mice” value (A172 GBM cells) of the same compound?
**A.** Its value is “Significant body weight gain reduction”.

**Q.** What about the tolerability to treatment (A172 GBM cells) of the same compound?
**A.** The tolerability to treatment was “relatively toxic and poorly tolerable”.

**Q.** For NCC(=O)CCC(=O)O [5-aminolevulinic acid], which BBB permeability [1] is on record?
**A.** Its BBB permeability is “did not show permeability”.

**Q.** Which half-life (physchem; pH 4.6) does the source give for CN(C)/N=N/c1[nH]cnc1C(N)=O [DTIC, dacarbazine, reference compound] here?
**A.** Its half-life is 5.1 h.

**Q.** What about the half-life (physchem; pH 7.4) of the same compound?
**A.** Its half-life is 10.2 h.

**Q.** With O=C(O)C1CCCNC1 (centres unmarked) [nipecotic acid] as the compound, how does the BBB permeability [1] read?
**A.** The BBB permeability was “did not show permeability”.
